Assay: Cyclic voltammetry (CV) in MeCN electrolyte solution
Type: physicochemical
Settings: for range over which the redox couples are observed (estimation of the Vcell): symmetric battery configuration assumed
Procedure: Cyclic voltammetry (CV) measurements were used to determine the E1/2 values for 2-OTf and 3-OTf, and those measurements were performed in 0.1 Bu4NBF4 MeCN solution. Five redox couples, corresponding to 8 electron transfer (ET) events were observed over the potential range for 2-OTf and 3-OTf, respectively (FIGS. 3A and 3B). The electrochemistry of 2 is expected to be the same as 2-OTF, although 2-OTf has different solubility. The range of about 1.8 V over which the redox couples are observed provides an estimation of the Vcell for a battery which could be constructed using 2^+ as the analyte, if the battery is constructed with a symmetric configuration where 2 is the analyte for both the cathode and anode.
Cyclic voltammograms (CVs) were recorded in a nitrogen-filled glovebox with a CH Instruments Electrochemical Analyzer Model 620D or 1400 with a glassy carbon working electrode (CH Instruments, nominal surface area of 0.071 cm^2), a platinum wire auxiliary electrode, and an Ag/AgNO3 (0.001M) non-aqueous reference electrode with a Vycor tip. All potentials are referenced to the SCE couple, and ferrocene was used as an external standard where the E1/2 of ferrocene/ferrocenium is +0.40 V vs. SCE in 0.1 M Bu4NPF6 MeCN. Bu4NPF6 was recrystallized from ethanol and placed under vacuum for 72 hours before electrolyte solutions were made. Electrolyte solutions were stored over 3 Å molecular sieves for at least 48 hours before use. Sieves were activated by heating under vacuum at 270° C. for at least 72 hours. UV-Vis spectra were obtained using a 1 cm cuvette using an Agilent 8453 UV-vis spectrophotometer.

[1] = 0.1 Bu4NBF4 MeCN solution, glassy carbon working electrode

Substance | electron transfer (ET) events observed over the potential range (five redox couples) (0.1 Bu4NBF4 MeCN solution) | E1/2 of the 3^0/− couple [1] [V vs SCE] | E1/2 of the 3^2+/+ couple [1] | E1/2 of the 3^6+/2+ four-electron couple [1] | E1/2 of the 3^+/0 couple [1] [V vs SCE] | E1/2 of the 3^−/2− couple [1] [V vs SCE] | range over which the redox couples are observed (estimation of the Vcell)
[(^EtOFcI2P^−)2Al)](OTf) [Complex 3-OTf] | 8 | −1.02 | +0.00 V vs SCE | +0.60 V vs SCE | −0.33 | −1.39 | 1.9 V
[(FcI2P^−)2Al)]OTf [Complex 2-OTf] | 8 |  |  |  |  |  | about 1.8 V

Reference: patent publication US12258358B1, “Ferrocene-substituted organometallic complexes” (THE REGENTS OF THE UNIVERSITY OF CALIFORNIA, priority 2023, dated 2025)
